Test results reported in patent US7884195B2, “Method of extracting ginsengnoside Rg2m, pharmaceutical composition including ginsengnoside Rg2, and uses thereof” (priority 2005, dated 2011).
Marks after values point to notes of the source that are not given here.

Columns and labels:
[1] = tested on: Bax; assay: Expression of Bax in hippocampus, Aβ1-40 dementia model; assay type: in vivo, rat; details: nimodipine 0.05 mg·kg^−1 i.v., 7 days; 10 rats per group
Experimental: (§1) This experiment was carried out employing an Alzheimer Dementia (AD) model. 70 rats were divided into 7 groups consisting of 10 rats each and were anesthetized with chloral hydrate. Except for a placebo group, the remaining 6 groups were rendered dementia models by injecting 4 μg of beta-amyloid (Aβ1-40) and 1 μg of Ibotenic acid (IBA) into the hippocampus CA1 region of each rat. The placebo group was infused with an equal amount of physiological saline, instead of beta-amyloid and Ibotenic acid (IBA).
(§2) The above-mentioned dementia model groups were subdivided into a control group to which physiological saline was administered, four experimental groups to which ginsenoside Rg2 was administered and a comparative group to which a medical dementia therapeutic agent, nimodipine was administered. Each group received the corresponding respective reagents via intravenous injection for 7 days, once a day, according to the dosages set forth in Table 7 below. Herein, reagents, which are administered to experimental groups, are isomeric C-20(S) ginsenoside Rg2 and C-20(R) ginsenoside Rg2, and mixed-type C-20(SR) ginsenoside Rg2 (in the following Tables, referred to as S, R and SR, respectively).
(§3) In addition, 24 hours after examination of learning-memory ability, the front and rear of the injected site of the hippocampus CA1 region were successively sliced and subjected to Niss1 staining, HE staining, and chemical examination of immune tissues and in situ cell death, thereby observing morphological changes of hippocampus neuron cell zones, necrosis, degree of cell loss, rate of cell death, and degree of expression of Bax/Bcl-2 and C-fos genes.

[2] = tested on: PC12 cells; assay: MTT metabolism after glutamic acid damage of PC12 cells; assay type: cell-based; details: nimodipine 5 pmol; 1 mmol/L glutamic acid, 20 hours; OD at 490 nm
Experimental: 100 μl/well of PC12 culture having a cell density of 10^5 cells/mL was inoculated into a 96-well plate and PC12 cells were allowed to adhere to walls of the plate. Wells were divided into 6 groups to which 6 wells were assigned each.
A serum-free medium was added to a non-treatment group, 1 mmol/L of a serum-free medium containing glutamic acid and an equal volume (1 mmol/L) of 20% 1,2-polyethylene glycol were added to a control group, 1 mmol/L of a serum-free medium containing glutamic acid and 0.1 mmol/L of respective structures of ginsenoside Rg2 were added to experimental groups, and 5 pmol of nimodipine, instead of ginsenoside Rg2, was added to a comparative group. Then, PC12 cells of respective groups were cultured at 37° C. for 20 hours.
20 μl/well of MTT (5 g/L) was added to respective groups and cells were continuously cultured at 37° C. for 4 hours. Then, the original medium was aspirated, and 0.1 ml/well of dimethyl sulfoxide (DMSO) was added to dissolve red granules. Next, optical density (OD) at 490 nm was measured using an enzyme-linked immuno-assay and then a t-test was made between groups.

[3] = tested on: hippocampus nerve cells; assay: TUNEL staining, in situ cell death (apoptosis), Aβ1-40 dementia model; assay type: in vivo, rat; details: nimodipine 0.05 mg·kg^−1 i.v., once a day, 7 days
Experimental: as §1
as §2, with “respectively). […]” for “respectively).”

[4] = tested on: multiple infarct dementia (MID) model rats; assay: Y-shaped electronic maze test of learning-memory ability, multiple infarct dementia (MID) model; assay type: in vivo, rat; parameters: key: stimuli needed for 9-10 successive correct responses (memory: 24 h later); details: nimodipine 0.05 mg·kg^−1 i.v., once a day, 7 days
Experimental: On day 6 of respective reagent administration, animals were subjected to a Y-shaped electronic maze test. Learning-memory ability of rats was determined according to the following method. Firstly, the order of learning is taken as the number of stimulus times necessary for 9 to 10-time successive and exact response of rats. After 24 hours, the stimulus times necessary for 9 to 10-time successive and exact response of rats were recorded again as the order of memory. Based on the recordings thus obtained, a t-test was made between respective groups.
This experiment was carried out employing a multiple infarct dementia (MID) model. 56 rats were divided into 7 groups consisting of 8 rats each and were anesthetized with 10% chloral hydrate. Except for a placebo group, the remaining 6 groups were established as dementia models by injecting 0.13 ml/100 g of a composite thrombosis-inducing agent into the carotid artery of each rat, restoring anatomical structures thereof and suturing skins along layers. The placebo group was injected with an equal amount of physiological saline, instead of the composite thrombosis-inducing agent. […]
On day 6 of respective reagent administration, learning-memory ability of animals was determined according to the same manner as in Experimental Example 1.

[5] = tested on: C-fos; assay: Expression of C-fos in hippocampus, Aβ1-40 dementia model; assay type: in vivo, rat; details: nimodipine 0.05 mg·kg^−1 i.v., 7 days; 10 rats per group
Experimental: as §1, §2, §3

[6] = tested on: Bax; assay: Bax-positive neurons in CPU region, MID model; assay type: in vivo, rat; details: nimodipine 0.05 mg·kg^−1 i.v., once a day, 7 days
Experimental: (§4) This experiment was carried out employing a multiple infarct dementia (MID) model. 56 rats were divided into 7 groups consisting of 8 rats each and were anesthetized with 10% chloral hydrate. Except for a placebo group, the remaining 6 groups were established as dementia models by injecting 0.13 ml/100 g of a composite thrombosis-inducing agent into the carotid artery of each rat, restoring anatomical structures thereof and suturing skins along layers. The placebo group was injected with an equal amount of physiological saline, instead of the composite thrombosis-inducing agent.
as §2, with “The above” for “The above-mentioned”, “to” for “to the”, “Table 12” for “Table 7”, “following experiments,” for “following Tables,”, “respectively). […]” for “respectively).”

[7] = tested on: Alzheimer Dementia (AD) model rats injected with beta-amyloid (Aβ1-40) and Ibotenic acid (IBA); assay: Y-shaped electronic maze test of learning-memory ability, beta-amyloid (Aβ1-40) dementia model; assay type: in vivo, rat; parameters: key: number of stimuli needed for 9-10 successive correct responses; details: nimodipine 0.05 mg·kg^−1 i.v., once a day, 7 days
Experimental: as §1
as §2, with “Herein, reagents, which are administered to experimental groups, are isomeric C-20(S) ginsenoside Rg2 and C-20(R) ginsenoside Rg2, and mixed-type C-20(SR) ginsenoside Rg2 (in the following Tables, referred to as S, R and SR, respectively).” left out
On day 6 of respective reagent administration, animals were subjected to a Y-shaped electronic maze test. Learning-memory ability of rats was determined according to the following method. […] After 24 hours, the stimulus times necessary for 9 to 10-time successive and exact response of rats were recorded again as the order of memory. […]

[8] = tested on: glutamate (Glu); assay: Glu-positive neurons in CPU region, MID model; assay type: in vivo, rat; details: nimodipine 0.05 mg·kg^−1 i.v., once a day, 7 days
Experimental: as §4
as §2, with “The above” for “The above-mentioned”, “to” for “to the”, “Table 12” for “Table 7”, “following experiments,” for “following Tables,”, “respectively). […]” for “respectively).”

[9] = tested on: hippocampus CA1 nerve cell bodies; assay: Niss1 staining, loss of nerve cell bodies, Aβ1-40 dementia model; assay type: in vivo, rat; details: nimodipine 0.05 mg·kg^−1 i.v., once a day, 7 days
Experimental: as §1
as §2, with “respectively). […]” for “respectively).”

[10] = tested on: Calpain II; assay: Calpain II-positive neurons in CPU region, MID model; assay type: in vivo, rat; details: nimodipine 0.05 mg·kg^−1 i.v., once a day, 7 days
Experimental: as §4
as §2, with “The above” for “The above-mentioned”, “to” for “to the”, “Table 12” for “Table 7”, “following experiments,” for “following Tables,”, “respectively). […]” for “respectively).”

[11] = tested on: Bcl-2; assay: Expression of Bcl-2 in hippocampus, Aβ1-40 dementia model; assay type: in vivo, rat; details: nimodipine 0.05 mg·kg^−1 i.v., 7 days; 10 rats per group
Experimental: as §1, §2, §3

[12] = tested on: Caspase-3; assay: Caspase-3-positive neurons in CPU region, MID model; assay type: in vivo, rat; details: nimodipine 0.05 mg·kg^−1 i.v., once a day, 7 days
Experimental: as §4
as §2, with “The above” for “The above-mentioned”, “to” for “to the”, “Table 12” for “Table 7”, “following experiments,” for “following Tables,”, “respectively). […]” for “respectively).”

COCCOC(=O)C1=C(C)NC(C)=C(C(=O)OC(C)C)C1c1cccc([N+](=O)[O-])c1 (centres unmarked) [Nimodipine, nimodipine, reference compound]
Expression Intensity of bax, count at grade + [1]: 7 | Expression Intensity of bax, count at grade ++ [1]: 3 | Expression Intensity of bax, count at grade +++ [1]: 0** | Expression Intensity of bax, count at grade − [1]: 0 | MTT (OD) [2]: 0.086 ± 0.017 | Rate of nerve cell death [3]: 19.83 ± 2.93 | Order of Memory [4]: 0.0 ± 0.0 | Order of Learning ([4]; test on day 6): 2.5 ± 3.70 | Expression Intensity of C-fos, count at grade + [5]: 3 | Expression Intensity of C-fos, count at grade ++ [5]: 4 | Expression Intensity of C-fos, count at grade +++ [5]: 3* | Expression Intensity of C-fos, count at grade − [5]: 0 | Number of Bax-positive cells [6]: 3.2 ± 2.47 | Order of Memory ([7]; 24 hours after learning): 4.10 ± 4.80 | Order of Learning ([7]; test on day 6): 8.60 ± 4.58 | Number of Glu-positive cells [8]: 11.8 ± 3.89 | Length of nerve cell body loss [9]: 259.14 ± 60.36 μm | Number of Calpain II-positive cells [10]: 3.9 ± 0.67 | Expression Intensity of bcl-2, count at grade + [11]: 5 | Expression Intensity of bcl-2, count at grade ++ [11]: 4 | Expression Intensity of bcl-2, count at grade +++ [11]: 1** | Expression Intensity of bcl-2, count at grade − [11]: 0 | Number of Caspase-3 positive cells [12]: 2.3 ± 2.72
